Reference: publication PMC5665762, “Phase 1 study of veliparib with carboplatin and weekly paclitaxel in Japanese patients with newly diagnosed ovarian cancer” (Cancer Science, 2017)

Experiments:
[1] = tested on: Japanese patients with newly diagnosed ovarian cancer; experiment: Phase 1 safety/tolerability: treatment-emergent adverse events, DLT, MTD, RP2D
Protocol: This was a phase 1, open‐label, multicenter, dose‐escalation study to evaluate the tolerability, safety, PK and preliminary efficacy of oral veliparib in combination with carboplatin and weekly paclitaxel in Japanese patients with ovarian cancer. Patients were assigned to treatment with veliparib at either 100 mg (dose level 1 [DL1]) or 150 mg (DL2) b.i.d. on days 1–21 of a 21‐day cycle. […] After completion of cycle 1, subsequent cycles were not begun until the patient's ANC was ≥1500/mm^3 and the platelet count ≥100 000/mm^3. Patients with ANC 1000–1499/mm^3 or platelet count 75 000–99 000/mm^3 (or both) could proceed to the next cycle of therapy with a predefined dose modification (Table S1). On day 8 or 15 of each cycle, another dose modification guideline was applied (Table S2). The patient's participation in the study was discontinued upon the third occurrence of hematologic toxicity that required dose modification per protocol. Treatment could be postponed for up to 21 days because of toxicity; longer toxicity‐related delay led to study discontinuation. Reduction of carboplatin and paclitaxel doses was permitted based on the toxicity observed (Table S3), which could necessitate discontinuation of either agent. At the investigator's discretion, patients who discontinued veliparib were […] to discontinue the study but could continue to receive carboplatin and paclitaxel as standard of care. The trial was conducted in accordance with good clinical practice, the International Conference on Harmonization guidelines, and the 1964 Declaration of Helsinki and its later amendments; written informed consent was obtained from all patients before study enrollment.
Dose escalation proceeded according to a 3 + 3 design to determine dose‐limiting toxicities (DLT), the maximum tolerated dose (MTD) and the RP2D. A minimum of 3 patients were enrolled at DL1. If none of these patients experienced a DLT, 3 more patients would be enrolled at DL2. If 1 or 2 patients experienced a DLT at DL1, 3 more patients would be enrolled at the same dose level. If ≤2 of 6 patients experienced a DLT, dose escalation would proceed to DL2. If ≥3 patients experienced a DLT, dose escalation would be stopped, with the following exceptions: (i) if 3 of 6 patients at DL1 experienced DLT, 3 more patients would enter the DL and the cohort be expanded to 9 patients, depending on a review of the specific DLT observed and discussion with the investigators; and (ii) if 3 of 9 patients at DL1 experienced DLT, escalation to DL2 would proceed, but if >3 of 9 patients experienced DLT, then dose escalation would stop.
Dose‐limiting toxicities were determined based on events that occurred during the DLT evaluation period from day 1 of cycle 1 through pre‐dosing on day 1 of cycle 2. A patient was considered to be evaluable for DLT assessment if they had completed cycle 1 with the assigned regimen or had prematurely discontinued cycle 1 or experienced an adverse event (AE) related to veliparib. AE that occurred after the DLT evaluation period were considered in dose‐escalation decisions and tolerability assessment. The MTD was defined as the highest dose level at which ≤2 of 6 or ≤3 of 9 patients experienced a DLT. The RP2D was determined on the basis of assessment of the observed toxicities, the MTD, the overall safety profile of the regimen, and the PK of veliparib. In the event that the MTD was not reached, the RP2D was to be defined on the basis of safety and PK data and would not be higher than the maximum administered dose. Any of the following events that were considered to have a reasonable possibility of being related to the administration of veliparib were defined as DLT: grade 4 neutropenia lasting more than 7 days; grade 4 thrombocytopenia; febrile neutropenia; any grade ≥3 nonhematologic toxicities except nausea, vomiting and diarrhea; and transient metabolic toxicities such as glucose changes, hypokalemia or hypophosphatemia.

[2] = Plasma pharmacokinetics on day 1 of cycle 1 (noncompartmental); design: AUC(0-inf): dose or concentration left out as unconfirmed
Protocol: (§1) During the screening visit, a complete medical history (including a detailed oncology history) was collected. Study visits occurred on days 1, 8 and 15 of cycle 1 and each subsequent cycle; patients also attended for a final visit and a 30‐day follow‐up visit. AE monitoring was performed at each visit; most visits also included a physical examination and ECOG performance status evaluation. Toxicities were graded according to the NCI Common Terminology Criteria for Adverse Events version 4.03. For the determination of veliparib, carboplatin and paclitaxel PK, plasma samples were collected at multiple time points within 24 h of the first morning dose of veliparib on day 1 of cycle 1. The PK of carboplatin and paclitaxel were evaluated only with veliparib co‐administration. Values of the PK parameters of veliparib, carboplatin and paclitaxel, including the maximum observed plasma concentration (C max), time to C max (T max) and AUC, were determined by using noncompartmental methods. In addition to tumor assessment at baseline, tumor response was assessed by using the Response Evaluation Criteria In Solid Tumors (RECIST) version 1.113 every 9 weeks from day 1 of cycle 1 and at the final visit. The tumor marker cancer antigen 125 (CA‐125) was evaluated on day 1 of each cycle and at the final visit.

[3] = tested on: target lesions, ovarian cancer; experiment: Tumor response by RECIST version 1.1; type: in vivo, Japanese patients
Protocol: as §1

CA‐125 = experiment: Tumor marker CA-125 response (Gynecologic Cancer InterGroup definition); type: in vivo, Japanese patients
Protocol: as §1

[4] = tested on: non‐small cell lung cancer; design: method as in PMID 26433581; settings: veliparib with carboplatin/paclitaxel, Japanese NSCLC patients, no more than 1 prior line of treatment; cited from earlier work
[5] = Total (both veliparib doses) + carboplatin/paclitaxel, N = 9, All grades
[6] = Total (both veliparib doses) + carboplatin/paclitaxel, N = 9, Grade 3 or 4
[7] = all 9 patients, regardless of relation to veliparib
[8] = veliparib 100 mg BID + carboplatin/paclitaxel, n = 3, All grades
[9] = veliparib 150 mg BID + carboplatin/paclitaxel, n = 6, All grades
[10] = veliparib dose 100 mg, day 1 of cycle 1, N 3, mean ± SD
[11] = veliparib dose 150 mg, day 1 of cycle 1, N 6, mean ± SD

With `N.N.O=C([O-])C1(C(=O)[O-])CCC1.[Pt+2]` [carboplatin] as the molecule, how does the “patients needing ≥1 carboplatin dose reduction” value ([1]; 7 of 9, beginning at cycle 2, due to hematologic toxicities) read?
Its value is 78%.

What about the C max ([2]; carboplatin measured as total platinum, AUC 6 mg/mL•min i.v. day 1 with veliparib, mean (SD)) of the same molecule?
The C max was 23.3 (4.28) μg/mL.

What about the “AUC from time zero to infinity (AUC∞)” value ([2]; carboplatin measured as total platinum, i.v. day 1 with veliparib, mean (SD)) of the same molecule?
The value was 5.30 (0.491) mg•min/mL.

With `CC(=O)O[C@H]1C(=O)[C@@]2(C)[C@H]([C@H](OC(=O)c3ccccc3)[C@]3(O)C[C@H](OC(=O)[C@H](O)[C@@H](NC(=O)c4ccccc4)c4ccccc4)C(C)=C1C3(C)C)[C@]1(OC(C)=O)CO[C@@H]1C[C@@H]2O` [paclitaxel] as the molecule, how does the AUC(0-inf) ([2]; female, human, in vivo) read?
Its AUC(0-inf) is 5320 ng·h/mL.

What about the Cmax ([2]; female, human, in vivo) of the same molecule?
Its Cmax is 3300 ng/mL.

Which results are given for `C[C@]1(c2nc3c(C(N)=O)cccc3[nH]2)CCCN1` [Veliparib]?
objective response rate ([3]; 5 assessed patients, veliparib plus carboplatin and paclitaxel): 100%; partial response ([3]; both cohorts, of 5 assessed patients): 4 patients; median best percentage change from baseline in the sum of target lesions ([3]; overall, range −100.00% to −50.00%): −53.51%; partial response ([3]; veliparib 100 mg b.i.d.): 1 patients; complete response ([3]; veliparib 100 mg b.i.d. cohort, of 5 assessed patients): One patient had a complete response; median best percentage change from baseline in the sum of target lesions ([3]; veliparib 100 mg b.i.d. cohort, range −100.00% to −53.51%): −76.75%; partial response ([3]; veliparib 150 mg b.i.d.): 3 patients; median best percentage change from baseline in the sum of target lesions ([3]; veliparib 150 mg b.i.d. cohort, range −90.29% to −50.00%): −51.57%; Nail disorder, TEAE [1, 5]: 2 (22) n (%); Nausea, TEAE [1, 5]: 6 (67) n (%); Neutropenia (including neutrophil count decreased), TEAE [1, 5]: 9 (100) n (%); Peripheral sensory neuropathy (including neuropathy peripheral), TEAE [1, 5]: 7 (78) n (%); Rash, TEAE [1, 5]: 2 (22) n (%); Stomatitis, TEAE [1, 5]: 2 (22) n (%); Thrombocytopenia (including platelet count decreased), TEAE [1, 5]: 5 (56) n (%); Vomiting, TEAE [1, 5]: 4 (44) n (%); Alopecia, TEAE [1, 6]: 0 n (%); Anemia, TEAE [1, 6]: 5 (56) n (%); Any AE, TEAE [1, 6]: 7 (78) n (%); Arthralgia, TEAE [1, 6]: 0 n (%); Constipation, TEAE [1, 6]: 0 n (%); Decreased appetite, TEAE [1, 6]: 0 n (%); Dry skin, TEAE [1, 6]: 0 n (%); Dysgeusia, TEAE [1, 6]: 0 n (%); Leukopenia (including white blood cell count decreased), TEAE [1, 6]: 4 (44) n (%); Malaise, TEAE [1, 6]: 0 n (%); Nail disorder, TEAE [1, 6]: 0 n (%); Nasopharyngitis, TEAE [1, 6]: 0 n (%); Nausea, TEAE [1, 6]: 0 n (%); Neutropenia (including neutrophil count decreased), TEAE [1, 6]: 7 (78) n (%); Peripheral sensory neuropathy (including neuropathy peripheral), TEAE [1, 6]: 0 n (%); Rash, TEAE [1, 6]: 0 n (%); Stomatitis, TEAE [1, 6]: 0 n (%); Vomiting, TEAE [1, 6]: 0 n (%); AE that led to death ([1]; all 9 patients): no AE that led to death; alopecia, TEAE of any grade [1, 7]: 89%; anemia, TEAE of any grade [1, 7]: 67%; anemia, grade 3 or 4 TEAE [1, 7]: 56%; malaise, TEAE of any grade [1, 7]: 67%; nausea, TEAE of any grade [1, 7]: 67%; neutropenia, TEAE of any grade [1, 7]: 100%; neutropenia, grade 3 or 4 TEAE ([1]; female, human, in vivo): 78%; peripheral sensory neuropathy, TEAE of any grade ([1]; female, human, in vivo): 78%; recommended phase 2 dose (RP2D) ([1]; in combination with carboplatin and weekly paclitaxel, determined on safety and PK data): 150 mg b.i.d.; dose‐limiting toxicities (DLT) ([1]; in vivo): No DLT were observed at any dose level; veliparib dose reduction ([1]; in vivo): No patient needed a veliparib dose reduction; veliparib discontinued because of a TEAE ([1]; overall, 6 of 9 patients): 67%; Alopecia, TEAE [1, 8]: 3 (100) n (%); Anemia, TEAE [1, 8]: 2 (67) n (%); Alopecia, TEAE [1, 9]: 5 (83) n (%); Anemia, TEAE [1, 9]: 4 (67) n (%); maximum tolerated dose (MTD) of the regimen ([1]; veliparib up to 150 mg b.i.d. with carboplatin and weekly paclitaxel): not reached; PK interaction between veliparib and carboplatin or paclitaxel ([2]; cross‐study comparison): no PK interaction; AUC0–8/dose [2, 10]: 37.2 ± 4.37 ng·h/mL/mg; C max/dose [2, 10]: 9.73 ± 1.63 ng/mL/mg; AUC0–8/dose [2, 11]: 36.7 ± 8.10 ng·h/mL/mg; C max/dose [2, 11]: 7.19 ± 1.16 ng/mL/mg; CA‐125 response (Gynecologic Cancer InterGroup definition) (CA‐125; 8 of 9 patients): 89%; median best percentage change from baseline in CA‐125 (CA‐125; overall, range −99.79% to −34.96%): −89.33%; median best percentage change from baseline in CA‐125 (CA‐125; veliparib 100 mg b.i.d. cohort, range −97.31% to −65.25%): −94.24%; median best percentage change from baseline in CA‐125 (CA‐125; veliparib 150 mg b.i.d. cohort, range −99.79% to −34.96%): −84.87%; objective response rate [4]: 55%
